Assay results taken from patent publication US20220369641A1, “MOLECULAR COMPLEXES” (priority 2019, published 2022).
Converted amounts (≈) assume the structure as drawn. One block for each compound: values may come before it.

What was measured:
[1] = Thermodynamic (aqueous) solubility, 24 hours at 25° C., HPLC quantitation; type: physicochemical; settings: for solubility thermodynamic at 24 h: thermodynamic from solid
Method: The suspension was equilibrated at 25° C., on a Heidolph plate shaker set to 750 rpm for 24 hours. The pH of the sample solutions was periodically checked and, if required, adjusted with 0.2M NaOH to ensure that the desired pH was maintained (±0.05) throughout. The pH of the saturated solution after this time was measured and the suspension filtered through a glass fibre C filter (particle retention 1.2 μm) and diluted appropriately.
Quantitation was by HPLC with reference to a standard solution of approximately 0.15 mg/ml in 1:1 MeCN/H2O. Different volumes of the standard, diluted and undiluted sample solutions were injected.
Different volumes of the standard, diluted and undiluted sample solutions were injected. The solubility was calculated using the peak areas determined by integration of the peak found at the same retention time as the principal peak in the standard injection.
Analysis was performed on an Agilent HP1100 series system equipped with a diode array detector and using ChemStation software.

[2] = Intrinsic dissolution rate (IDR), Sirius inForm, compressed discs; type: physicochemical; settings: 37° C., pH 5.0 media, 1 hour, 6 mm disc
Method: IDR Method Ca. 40 mg material was compressed under 100 kg for 2 minutes to form non-disintegrating discs. The discs were then plugged with a bung so that only one surface was exposed to the media during analysis, and transferred to the dissolution apparatus (Sirius inForm). The volume of the assay was 40 ml and a stir speed of 225 rpm was used. Analysis was performed at 37° C. in pH 5.0 media for 1 hour with UV spectra collected every 30 seconds, using a 20 mm path length probe.

[3] = Media DI Water, pH 7.8, 25° C., 24 hours, final pH 5.24-5.42

- solubility thermodynamic at 24 h ([1]; pH 4.0 acetic acid/sodium acetate media, aqueous buffer, pH 4.0 media (42.4 ml 0.1 M acetic acid mixed with 7.6 ml 0.1 M sodium acetate), 25° C., 24 hours, read-out: Thermodynamic solubility of second component): > 13800 µg/mL
Compound: COc1c(Cl)ccc(Cl)c1C(=O)O [Dicamba freeform, 3,6-Dichloro-2-methoxybenzoic acid]

Compound: Nc1c(Cl)c(F)nc(OCC(=O)O)c1Cl [Fluroxypyr freeform, Fluroxypyr]
- solubility thermodynamic at 24 h ([1]; 25 °C, pH 4.04, water): 290 µg/mL (≈ 1140 µM)
- IDR of second component [2]: 956.9 μg/min/cm^2

Compound: CCc1cc(C)cc(CC)c1-c1c(OC(=O)C(C)(C)C)n2n(c1=O)CCOCC2 [Pinoxaden freeform, [8-(2,6-diethyl-4-methylphenyl)-7-oxo-1,2,4,5-tetrahydropyrazolo[1,2-d][1,4,5]oxadiazepin-9-yl] 2,2-dimethylpropanoate]
- solubility thermodynamic at 24 h ([1]; aqueous buffer, pH 4.0 media (42.4 ml 0.1 M acetic acid mixed with 7.6 ml 0.1 M sodium acetate), 25° C., 24 hours, read-out: Thermodynamic solubility of pinoxaden component): 280 µg/mL (≈ 699 µM)
- solubility thermodynamic at 24 h ([1]; Media DI Water, 25° C., 24 hours, final pH 3.97-4.10, read-out: Thermodynamic solubility of pinoxaden component): ~230 µg/mL (≈ 574 µM)
- IDR of pinoxaden component [2]: 69.4 μg/min/cm^2

Compound: Pinoxaden:2,4-D (1:1) Molecular Complex [Example 3]
- Thermodynamic solubility of pinoxaden component [1, 3]: 200 µg/mL
- Thermodynamic solubility of second component [1, 3]: 120 µg/mL
